The text below walks through data of US11434205B2, “Substituted imidazole carboxylate derivatives and the use thereof” (priority 2018, dated 2022).

By EC50 is commonly meant the concentration giving half of the maximal effect. By ED50 is commonly meant the dose that gives a 50% effect, or the effect in half of the subjects. Higher therefore signals a need for a large dose.

Where two headings read alike, the source gives them in different places.

The subject of series [1] is rats. In words: Pharmacological characteristics at equivalent doses (2×ED50) in rats. The following applies: 2×ED50, tail vein; for Adverse reactions: Red urine (incidence): DMSO solution (DMSO alone 10/10); for Onset time: time of LORR. In a few lines:
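Anesthesia onset, recorded as time of LORR, was measured after a 2×ED50 tail-vein injection (0.6 mL, 0.1 mL/s). Animals were male Sprague-Dawley rats of 250-300 g, n=8.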

For series [2], the system named is secretion of corticosterone, H295R cell line. In words: cells. It counts as cell-based. To be noted: for Corticosterone as an indicator to determine the presence of inhibition: H295R cell line, 0.1-10000 nM, HPLC-MS/MS, Table D3; for EC50: Homo sapiens, NCI-H295R, read-out: EC50 (Corticosterone). As to the method: (§1) The Effects of the Compounds on Adrenocortical Function In Vitro Test
(§2) Then secretion of the cortisol and corticosterone in the supernatant, was measured using HPLC-MS/MS method to determine whether the compounds of the present invention had adrenotoxic potential.

Series [3] deals with secretion of cortisol, H295R cell line. In words: cells. The series is classed as cell-based. The following applies: for Cortisol as an indicator to determine the presence of inhibition: H295R cell line, 0.1-10000 nM, HPLC-MS/MS, Table D3; for EC50: Homo sapiens, NCI-H295R, read-out: EC50 (Cortisol). As to the method:
as §1, §2

The subject of series [4] is rats. In words: Loss of righting reflexes (LORR) assay in rats, ED50 by up and down method. It counts as in vivo, rat. The following applies: Rattus norvegicus, tail vein, class symbols. In a few lines:
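ED50 obtained by up-and-down dosing, with righting-reflex loss over 30 s counted as general anesthesia. Compounds injected into the tail vein (0.1 mL/s) of male Sprague-Dawley rats weighing 250-300 g.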

Series [5] concerns rats. It counts as in vivo, rat. To be noted: rats of the MAP/HR figures, 2×ED50, tail vein; same value in min. In short, it runs like this: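 Hemodynamic stability judged from mean arterial pressure and heart rate, recorded at 15 s intervals over 30 min pre- and post-dose. Dosing was through a tail-vein indwelling catheter in rats carrying implanted aortic/ventricular catheters and ECG wires, operated ≥1 week earlier.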

Series [6] deals with rats. The series is classed as in vivo, rat. The following applies: rats of the MAP/HR figures, 2×ED50, tail vein.
The subject of series [7] is rats. The following applies: continuous tail vein infusion at 2×MIR, LORR maintained 1 hour, Table D4. As to the method: Pharmacological Effects of the Compounds on Continuous Infusion in Rats
Adult male Sprague-Dawley rats with body weight ranging from 250 to 300 gm were selected for continuous infusion test. […] Time to recovery of righting reflex from stopping infusion, and time to fully awake from stopping infusion were recorded.

In series [8] the test system is rats. On the procedure:
Adult male Sprague-Dawley rats (250-300 g) were selected for the experiment. […] The anesthesia effects of the compounds were assessed in rats using a LORR assay and a period >30 s was considered as an indicator of general anesthesia. Then the up and down method was used to determine 50% effective dose (ED50). The drugs were administered through the tail vein of rats in a volume of 0.6 mL and at a rate of 0.1 mL/s.

In the case of `C=C=CC1(OC(=O)c2cncn2[C@H](C)c2ccccc2)CCC1` [Compound D13], in series [1], the “Righting reflex duration” value was found to be 5.09 ± 1.89 min, the “Adverse reactions: Red urine (incidence)” value is recorded as “Red urine (8/8)” and the “Onset time” value worked out at 0.25 ± 0.06 min. Besides, in series [2], the “Corticosterone as an indicator to determine the presence of inhibition” value (shortened to “Corticosterone as an indicator … of inhibition”) is reported as 0 and the EC50 is greater than 10 µM. In series [3], the “Cortisol as an indicator to determine the presence of inhibition” value (“Cortisol as an indicator … of inhibition” below) amounted to 0 and the EC50 was greater than 10 µM. This molecule also gave an ED50 in series [4] of 0.01 to 0.1 mg/kg. Also, the “recovery time of the test animals' righting reflex” value in series [5] is listed as 1.82 min. In series [6], the “recovery time of the test animals' righting reflex” value is given as 109 s. For the same molecule, in series [7], the Onset time was in the range of 2 to 3 min; the “Recovery time after stopping infusion” value fell in the range of 13 to 22 min; the “Types and incidence of adverse reactions” value was “Tremor (4/6)”. Besides, in series [8], the Approximate therapeutic index is listed as greater than 12 and the “Minimal lethal dose” value was greater than 6 mg/kg.
On to `C#CC(C)OC(=O)c1cncn1[C@H](C)c1ccccc1` (stereo partly shown) [Compound D14], for which, in series [1], the “Righting reflex duration” value is 2.09 ± 1.08 min, the “Adverse reactions: Red urine (incidence)” value is “Red urine (8/8)” and the “Onset time” value is 0.24 ± 0.09 min. In addition, in series [2], the “Corticosterone as an indicator … of inhibition” value worked out at 0 and the EC50 is greater than 10 µM. Besides, in series [3], the “Cortisol as an indicator … of inhibition” value stood at 0 and the EC50 is greater than 10 µM. Moreover, in series [4], the ED50 was in the range of 0.1 to 0.5 mg/kg. Moreover, in series [5], the “recovery time of the test animals' righting reflex” value worked out at 3.5 min. In series [6], the “recovery time of the test animals' righting reflex” value is 210 s. For the same molecule, in series [7], the Onset time is 2 to 3 min; the “Recovery time after stopping infusion” value is 11 to 14 min; the “Types and incidence of adverse reactions” value is “Tremor (5/6)”. In addition, in series [8], the Approximate therapeutic index is greater than 13 and the “Minimal lethal dose” value is recorded as greater than 3 mg/kg.
For the molecule `C#CC(C)(C)OC(=O)c1cncn1[C@H](C)c1ccccc1` [Compound D15], in series [1], the “Righting reflex duration” value amounted to 2.25 ± 0.79 min, the “Adverse reactions: Red urine (incidence)” value is listed as “(7/8)” and the “Onset time” value came to 0.21 ± 0.10 min. For the same molecule, in series [1] (animals affected/animals), the “Adverse reactions: Tremor (incidence)” value is on record as “Tremor (2/8), Red urine”. Besides, in series [2], the “Corticosterone as an indicator … of inhibition” value came out at 0 and the EC50 was greater than 10 µM. Moreover, in series [3], the “Cortisol as an indicator … of inhibition” value amounted to 0 and the EC50 is greater than 10 µM. In series [4], this molecule gave an ED50 of 0.1 to 0.5 mg/kg. Also, in series [5], the “recovery time of the test animals' righting reflex” value was determined as 3.75 min. Moreover, the “recovery time of the test animals' righting reflex” value in series [6] stood at 225 s. In series [7], the Onset time lay within 2 to 3 min; the “Recovery time after stopping infusion” value was in the range of 10 to 11 min; the “Types and incidence of adverse reactions” value is “Tremor (3/6)”. In addition, in series [8], the Approximate therapeutic index is greater than 10 and the “Minimal lethal dose” value is greater than 4 mg/kg.
On to `CC#CCOC(=O)c1cncn1[C@H](C)c1ccccc1` [Compound D18], for which, in series [1], the “Adverse reactions: Convulsions (incidence)” value is reported as “Convulsions (1/8), Red”; the “Righting reflex duration” value came to 1.88 ± 0.95 min; the “Adverse reactions: Red urine (incidence)” value is “urine (8/8)”; the “Onset time” value was 0.22 ± 0.11 min. In series [2], the “Corticosterone as an indicator … of inhibition” value worked out at 0 and the EC50 is greater than 10 µM. Also, in series [3], the “Cortisol as an indicator … of inhibition” value turned out to be 0 and the EC50 was greater than 10 µM. The molecule further gave an ED50 in series [4] of 0.1 to 0.5 mg/kg. Besides, the “recovery time of the test animals' righting reflex” value in series [5] worked out at 5.28 min. Moreover, the “recovery time of the test animals' righting reflex” value in series [6] turned out to be 317 s. In series [7], the Onset time is 3 to 4 min; the “Recovery time after stopping infusion” value lay in the range of 11 to 13 min; the “Types and incidence of adverse reactions” value is “Convulsions (1/6), Tremor (4/6)”. Further, in series [8], the Approximate therapeutic index is greater than 12 and the “Minimal lethal dose” value is given as greater than 3 mg/kg.
Consider `C=C=CC1(OC(=O)c2cncn2[C@H](C)c2ccccc2)COC1` [Compound D21], for which, in series [1], the “Adverse reactions: Hindlimb rigidity (incidence)” value is “Hindlimb rigidity (2/8),”, the “Righting reflex duration” value is recorded as 1.93 ± 0.95 min, the “Adverse reactions: Red urine (incidence)” value is listed as “Red urine (8/8)” and the “Onset time” value worked out at 0.15 ± 0.05 min. Further, in series [2], the “Corticosterone as an indicator … of inhibition” value is 0 and the half-maximal effective concentration (EC50) was greater than 1 µM. In series [3], the “Cortisol as an indicator … of inhibition” value stood at 0 and the half-maximal effective concentration (EC50) is greater than 1 µM. Also, in series [4], the ED50 lay in the range of 0.01 to 0.1 mg/kg. The “recovery time of the test animals' righting reflex” value in series [5] stood at 6.0 min. Further, the “recovery time of the test animals' righting reflex” value in series [6] stood at 360 s. In series [7], the Onset time fell in the range of 2 to 3 min; the “Recovery time after stopping infusion” value was 8 to 9 min; the “Types and incidence of adverse reactions” value is “Tremor (4/6), Myoclonus (1/6)”. Moreover, in series [8], the Approximate therapeutic index is given as greater than 16 and the “Minimal lethal dose” value is reported as greater than 1 mg/kg.
Take `CCC#CC(C)OC(=O)c1cncn1[C@H](C)c1ccccc1` (stereo partly shown) [Compound D36]: in series [1], the “Adverse reactions: Hindlimb rigidity (incidence)” value is listed as “Hindlimb rigidity (2/8),”, the “Adverse reactions: Tongue stretching (incidence)” value is listed as “Tongue stretching (4/8),”, the “Righting reflex duration” value is on record as 2.63 ± 1.78 min and the “Adverse reactions: Red urine (incidence)” value was “Red urine (8/8)”. For the same molecule, in series [1], the “Onset time” value came to 0.31 ± 0.14 min. In series [2], the “Corticosterone as an indicator … of inhibition” value came to 0 and the EC50 was greater than 1 µM. In series [3], the “Cortisol as an indicator … of inhibition” value amounted to 0 and the 50% effective concentration (EC50) is greater than 1 µM. Also, the ED50 in series [4] lay within 0.1 to 0.5 mg/kg. Further, in series [5], the “recovery time of the test animals' righting reflex” value came out at 2.38 min. Besides, the “recovery time of the test animals' righting reflex” value in series [6] is 143 s. In addition, in series [7], the Onset time lay in the range of 3 to 4 min and the “Recovery time after stopping infusion” value was 12 to 17 min. Moreover, in series [8], the Approximate therapeutic index is reported as greater than 15 and the “Minimal lethal dose” value is reported as greater than 4 mg/kg.
Turning to `C=CC#CC(C)(C)OC(=O)c1cncn1[C@H](C)c1ccccc1` [Compound D37], in series [1], the “Righting reflex duration” value came to 3.09 ± 2.03 min, the “Adverse reactions: Red urine (incidence)” value was “Red urine (8/8)” and the “Onset time” value is given as 0.24 ± 0.11 min. In series [2], the “Corticosterone as an indicator … of inhibition” value came out at 0 and the EC50 is greater than 1 µM. In series [3], the “Cortisol as an indicator … of inhibition” value turned out to be 0 and the EC50 was greater than 1 µM. The molecule also returned an ED50 in series [4] of 0.5 to 1 mg/kg. Further, the “recovery time of the test animals' righting reflex” value in series [5] is listed as 2.75 min. In series [6], the “recovery time of the test animals' righting reflex” value was determined as 165 s. Further, in series [7], the Onset time is 2 to 3 min; the “Recovery time after stopping infusion” value was in the range of 12 to 18 min; the “Types and incidence of adverse reactions” value is on record as “Tremor (4/6)”. Besides, in series [8], the Approximate therapeutic index is listed as greater than 13 and the “Minimal lethal dose” value is greater than 10 mg/kg.
